Patent US9278981B2, “Compounds and compositions for inhibiting the activity of ABL1, ABL2 and BCR-ABL1” (Novartis AG, priority 2012, dated 2016)

Target: ABL1 (64-515) (Homo sapiens (Human), UniProt P00519)
Experiment: Radio ABL1 (64-515) assay (radiometric filter-binding)
Type: biochemical

Sequence of ABL1 (64-515) (P00519 64-515): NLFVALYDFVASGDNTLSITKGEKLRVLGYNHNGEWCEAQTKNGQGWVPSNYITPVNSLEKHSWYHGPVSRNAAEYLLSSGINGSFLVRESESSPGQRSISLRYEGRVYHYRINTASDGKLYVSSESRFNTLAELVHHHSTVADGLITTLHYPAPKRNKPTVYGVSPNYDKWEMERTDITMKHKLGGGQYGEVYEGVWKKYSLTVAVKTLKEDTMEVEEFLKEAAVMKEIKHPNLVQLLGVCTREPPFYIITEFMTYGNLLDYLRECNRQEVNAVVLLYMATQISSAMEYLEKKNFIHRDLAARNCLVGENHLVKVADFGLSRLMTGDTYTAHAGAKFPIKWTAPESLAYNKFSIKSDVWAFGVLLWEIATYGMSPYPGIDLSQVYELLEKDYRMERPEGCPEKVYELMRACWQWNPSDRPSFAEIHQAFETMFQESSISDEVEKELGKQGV

IC50 [nM]	Structure (SMILES)
< 3	Cc1ccc(-c2cc(C(=O)Nc3ccc(OC(F)(F)F)cc3)cnc2N2CC[C@H](CN)C2)cn1 [Example 107, (R)-2-(3-(Aminomethyl)pyrrolidin-1-yl)-6′-methyl-N-(4-(trifluoromethoxy)phenyl)-[3,3′-bipyridine]-5-carboxamide]
10	CC1(O)CN(c2ncc(C(=O)Nc3ccc(OC(F)(F)F)cc3)cc2-c2cnc(Cl)c(F)c2)C1 [Example 134, 6′-Chloro-5′-fluoro-2-(3-hydroxy-3-methylazetidin-1-yl)-N-(4-(trifluoromethoxy)phenyl)-[3,3′-bipyridine]-5-carboxamide]
< 3	O=C(Nc1ccc(OC(F)(F)F)cc1)c1cnc(N2Cc3ccncc3C2)c(-c2cncnc2)c1 [Example 18]
4	O=C(Nc1ccc(OC(F)(F)F)cc1)c1cnc(N2CCCNCC2)c(-c2cccnc2)c1 [Example 145, 2-(1,4-Diazepan-1-yl)-N-(4-(trifluoromethoxy)phenyl)-[3,3′-bipyridine]-5-carboxamide]
< 3	O=C(Nc1ccc(OC(F)(F)F)cc1)c1cnc(N2CCCC(CO)C2)c(-c2cncnc2)c1 (centres unmarked) [Example 19]
< 3	CC1(O)CCN(c2ccc(C(=O)Nc3ccc(OC(F)(F)F)cc3)cc2-c2cncnc2)C1 (centres unmarked) [Example 11, 4-(3-Hydroxy-3-methylpyrrolidin-1-yl)-3-(pyrimidin-5-yl)-N-(4-(trifluoromethoxy)phenyl)benzamide]
13	NC(=O)C1CCN(c2ncc(C(=O)Nc3ccc(OC(F)(F)F)cc3)cc2-c2cncnc2)CC1 [Example 21]
4	O=C(Nc1ccc(OC(F)(F)F)cc1)c1cnc(N2CC[C@@H](O)C2)c(-c2ccc3ccncc3c2)c1 [Example 63, (R)-6-(3-Hydroxypyrrolidin-1-yl)-5-(isoquinolin-7-yl)-N-(4-(trifluoromethoxy)phenyl)nicotinamide]
< 3	COc1ncc(-c2cc(C(=O)Nc3ccc(OC(F)(F)F)cc3)cnc2N2CCC(O)C2)cn1 (centres unmarked) [Example 28, 6-(3-Hydroxypyrrolidin-1-yl)-5-(2-methoxypyrimidin-5-yl)-N-(4-(trifluoromethoxy)phenyl)nicotinamide]
6	O=C(Nc1ccc(OC(F)(F)F)cc1)c1cnc(N2CC[C@@H](O)C2)c(-c2cccc(CO)c2)c1 [Example 59, (R)-5-(3-(Hydroxymethyl)phenyl)-6-(3-hydroxypyrrolidin-1-yl)-N-(4-(trifluoromethoxy)phenyl)nicotinamide]
11	CCc1ccc(-c2cc(C(=O)Nc3ccc(OC(F)(F)F)cc3)cnc2N2CC[C@H](CO)C2)cn1 [Example 83, (S)-6′-Ethyl-2-(3-(hydroxymethyl)pyrrolidin-1-yl)-N-(4-(trifluoromethoxy)phenyl)-[3,3′-bipyridine]-5-carboxamide]
< 3	O=C(Nc1ccc(OC(F)(F)F)cc1)c1cnc(N2CCCC2)c(-c2cncnc2)c1 [Example 67, 5-(Pyrimidin-5-yl)-6-(pyrrolidin-1-yl)-N-(4-(trifluoromethoxy)phenyl)nicotinamide]
6	CC(C)(O)C1CCN(c2ncc(C(=O)Nc3ccc(OC(F)(F)F)cc3)cc2-c2cccnc2)C1 (centres unmarked) [Example 114, 2-(3-(2-Hydroxypropan-2-yl)pyrrolidin-1-yl)-N-(4-(trifluoromethoxy)phenyl)-[3,3′-bipyridine]-5-carboxamide]
< 3	Cc1ncc(-c2cc(C(=O)Nc3ccc(OC(F)(F)F)cc3)cnc2N2CC[C@@H](O)C2)cn1 [Example 36, (R)-6-(3-Hydroxypyrrolidin-1-yl)-5-(2-methylpyrimidin-5-yl)-N-(4-(trifluoromethoxy)phenyl)nicotinamide]
< 3	O=C(Nc1ccc(OC(F)(F)F)cc1)c1cnc(N2CC[C@@H](O)C2)c(-c2ccc3nccnc3c2)c1 [Example 64, (R)-6-(3-Hydroxypyrrolidin-1-yl)-5-(quinoxalin-6-yl)-N-(4-(trifluoromethoxy)phenyl)nicotinamide]
< 3	CN[C@@H]1CCN(c2ncc(C(=O)Nc3ccc(OC(F)(F)F)cc3)cc2-c2cncnc2)C1 [Example 99, (R)-6-(3-(Methylamino)pyrrolidin-1-yl)-5-(pyrimidin-5-yl)-N-(4-(trifluoromethoxy)phenyl)nicotinamide]
< 3	NC[C@@H]1CCN(c2ncc(C(=O)Nc3ccc(OC(F)(F)F)cc3)cc2-c2cccnc2)C1 [Example 109, (S)-2-(3-(Aminomethyl)pyrrolidin-1-yl)-N-(4-(trifluoromethoxy)phenyl)-[3,3′-bipyridine]-5-carboxamide]
< 3	CN(CCCO)c1ncc(C(=O)Nc2ccc(OC(F)(F)F)cc2)cc1-c1cncnc1 [Example 165, 6-((3-Hydroxypropyl)(methyl)amino)-5-(pyrimidin-5-yl)-N-(4-(trifluoromethoxy)phenyl)nicotinamide]
< 3	CC(=O)NC1CCCN(c2ncc(C(=O)Nc3ccc(OC(F)(F)F)cc3)cc2-c2cncnc2)C1 (centres unmarked) [Example 20]
< 3	CN(C)CCCN(C)c1ncc(C(=O)Nc2ccc(OC(F)(F)F)cc2)cc1-c1cccnc1 [Example 168, 2-((3-(Dimethylamino)propyl)(methyl)amino)-N-(4-(trifluoromethoxy)phenyl)-[3,3′-bipyridine]-5-carboxamide]
< 3	NC[C@H]1CCN(c2ncc(C(=O)Nc3ccc(OC(F)(F)F)cc3)cc2-c2cccnc2)C1 [Example 106, (R)-2-(3-(Aminomethyl)pyrrolidin-1-yl)-N-(4-(trifluoromethoxy)phenyl)-[3,3′-bipyridine]-5-carboxamide]

Further lines, the molecule ahead of its results:

Structure (SMILES)	IC50 [nM]
O=C(Nc1ccc(OC(F)(F)F)cc1)c1cnc(N2CCC(O)C2)c(-c2ccncc2)c1 (centres unmarked) [Example 31, 2-(3-Hydroxypyrrolidin-1-yl)-N-(4-(trifluoromethoxy)phenyl)-[3,4′-bipyridine]-5-carboxamide]	7
Cc1ccc(-c2cc(C(=O)Nc3ccc(OC(F)(F)F)cc3)cnc2N(C)CCO)cn1 [Example 153, 2-((2-Hydroxyethyl)(methyl)amino)-6′-methyl-N-(4-(trifluoromethoxy)phenyl)-[3,3′-bipyridine]-5-carboxamide]	< 3
CN(c1ncc(C(=O)Nc2ccc(OC(F)(F)F)cc2)cc1-c1cncnc1)C1CCOCC1 [Example 27]	< 3
Cc1ncc(-c2cc(C(=O)Nc3ccc(OC(F)(F)F)cc3)cnc2N2CC(CO)C2)cn1 [Example 136, 6-(3-(Hydroxymethyl)azetidin-1-yl)-5-(2-methylpyrimidin-5-yl)-N-(4-(trifluoromethoxy)phenyl)nicotinamide]	< 3
O=C(Nc1ccc(OC(F)(F)F)cc1)c1cnc(N2CCC(O)C2)c(-c2ccc(C(F)(F)F)nc2)c1 (centres unmarked) [Example 32, 2-(3-Hydroxypyrrolidin-1-yl)-N-(4-(trifluoromethoxy)phenyl)-6′-(trifluoromethyl)-[3,3′-bipyridine]-5-carboxamide]	< 3
Cc1ccc(-c2cc(C(=O)Nc3ccc(OC(F)(F)F)cc3)cnc2N2CC[C@@H](N)C2)cn1 [Example 95, (R)-2-(3-Aminopyrrolidin-1-yl)-6′-methyl-N-(4-(trifluoromethoxy)phenyl)-[3,3′-bipyridine]-5-carboxamide]	< 3
O=C(Nc1ccc(OC(F)(F)F)cc1)c1cnc(NCCO)c(-c2cccnc2)c1 [Example 159, 2-((2-Hydroxyethyl)amino)-N-(4-(trifluoromethoxy)phenyl)-[3,3′-bipyridine]-5-carboxamide]	< 3
O=C(Nc1ccc(OC(F)(F)F)cc1)c1cnc(N2CC[C@@H](CO)C2)c(-c2cccnc2)c1 [Example 76, (R)-2-(3-(Hydroxymethyl)pyrrolidin-1-yl)-N-(4-(trifluoromethoxy)phenyl)-[3,3′-bipyridine]-5-carboxamide]	< 3
Cc1ccc(-c2cc(C(=O)Nc3ccc(OC(F)(F)F)cc3)cnc2NCCO)cn1 [Example 160, 2-((2-Hydroxyethyl)amino)-6′-methyl-N-(4-(trifluoromethoxy)phenyl)-[3,3′-bipyridine]-5-carboxamide]	< 3
Cc1ncc(-c2cc(C(=O)Nc3ccc(OC(F)(F)F)cc3)ccc2N2CC[C@@H](O)C2)cn1 [Example 3, (R)-4-(3-Hydroxypyrrolidin-1-yl)-3-(2-methylpyrimidin-5-yl)-N-(4-(trifluoromethoxy)phenyl)benzamide]	< 3
N#C[C@H]1CCCN(c2ncc(C(=O)Nc3ccc(OC(F)(F)F)cc3)cc2-c2cncnc2)C1 [Example 24]	< 3
COc1ncc(-c2cc(C(=O)Nc3ccc(OC(F)(F)F)cc3)cnc2N2CC[C@@H](O)C2)cn1 [Example 37, (R)-6-(3-Hydroxypyrrolidin-1-yl)-5-(2-methoxypyrimidin-5-yl)-N-(4-(trifluoromethoxy)phenyl)nicotinamide]	3
O=C(Nc1ccc(OC(F)(F)F)cc1)c1cnc(N2CC(CO)C2)c(-c2cnc(Cl)c(F)c2)c1 [Example 141, 6′-Chloro-5′-fluoro-2-(3-(hydroxymethyl)azetidin-1-yl)-N-(4-(trifluoromethoxy)phenyl)-[3,3′-bipyridine]-5-carboxamide]	6
COc1ccc(-c2cc(C(=O)Nc3ccc(OC(F)(F)F)cc3)cnc2N2CC[C@@H](O)C2)cn1 [Example 56, (R)-2-(3-hydroxypyrrolidin-1-yl)-6′-methoxy-N-(4-(trifluoromethoxy)phenyl)-[3,3′-bipyridine]-5-carboxamide]	4
CN[C@@H]1CCN(c2ncc(C(=O)Nc3ccc(OC(F)(F)F)cc3)cc2-c2ccc(C)nc2)C1 [Example 101, (R)-6′-Methyl-2-(3-(methylamino)pyrrolidin-1-yl)-N-(4-(trifluoromethoxy)phenyl)-[3,3′-bipyridine]-5-carboxamide]	< 3
CN[C@H]1CCN(c2ncc(C(=O)Nc3ccc(OC(F)(F)F)cc3)cc2-c2ccc(C)nc2)C1 [Example 104, (S)-6′-Methyl-2-(3-(methylamino)pyrrolidin-1-yl)-N-(4-(trifluoromethoxy)phenyl)-[3,3′-bipyridine]-5-carboxamide]	3
Cc1ccc(-c2cc(C(=O)Nc3ccc(OC(F)(F)F)cc3)cnc2N2CCC(C(C)(C)O)C2)cn1 (centres unmarked) [Example 115, 2-(3-(2-Hydroxypropan-2-yl)pyrrolidin-1-yl)-6′-methyl-N-(4-(trifluoromethoxy)phenyl)-[3,3′-bipyridine]-5-carboxamide]	16
